Converted amounts (≈) assume the structure as drawn. Counter-ions that a name gives are not always drawn.

Results on 18 compounds are retold here after patent publication US4150023A, “Hydrosoluble rifamycins and process for their preparation” (Intreprinderea de Antibiotice Iasi, priority 1977, dated 1979).

In the first series the test system is ill subjects treated with rifampicin.
Assay: not given
The conditions noted are these: cited from earlier work.
Consider `CO[C@H]1/C=C/O[C@@]2(C)Oc3c(C)c(O)c4c(O)c(c(/C=N/N5CCN(C)CC5)c(O)c4c3C2=O)NC(=O)/C(C)=C\C=C\[C@H](C)[C@H](O)[C@@H](C)[C@@H](O)[C@@H](C)[C@H](OC(C)=O)[C@@H]1C` [rifampicin], for which the “unsuccessful therapeutic treatments caused by hepatobiliar alterations” value is reported as “over 10%”.

Tested on in the next series: not listed separately
In words: physchem. The format is physicochemical.
Details: not given
Here is the method:
When the work is carried out as in above mentioned examples, using 2 mol of sodium ethylhexanoate versus 1 mol of rifamycin derivative, the soluble forms of other derivatives, presented in Table 1, are obtained using the specific volumes of solvent, and resulting in the products characterized by the main proprieties tabulated.
`CO[C@H]1/C=C/O[C@@]2(C)Oc3c(C)c(O)c4c(O)c(c(C=NO)c(O)c4c3C2=O)NC(=O)/C(C)=C\C=C\[C@H](C)[C@H](O)[C@@H](C)[C@@H](O)[C@@H](C)[C@H](OC(C)=O)[C@@H]1C` [Example 8, 3-formylrifamycin SV oxime (K salt)]: the Solubility soluble form came to 25000 µg/mL. The same measure, in the same setting: then `CO[C@H]1/C=C/O[C@@]2(C)Oc3c(C)c(O)c4c(O)c(c(C=NO)c(O)c4c3C2=O)NC(=O)/C(C)=C\C=C\[C@H](C)[C@H](O)[C@@H](C)[C@@H](O)[C@@H](C)[C@H](OC(C)=O)[C@@H]1C` [Example 7, 3-formylrifamycin SV oxime], with “over 100 mg/ml”.

Still in this series, the particulars now being: Solubility as such.
As to `CO[C@H]1/C=C/O[C@@]2(C)Oc3c(C)c(O)c4c(O)c(c(C=NNc5ccc(-c6ccc(C)cc6)nn5)c(O)c4c3C2=O)NC(=O)/C(C)=C\C=C\[C@H](C)[C@H](O)[C@@H](C)[C@@H](O)[C@@H](C)[C@H](OC(C)=O)[C@@H]1C` [3-[3'-(p-tolyl)-pyridazinyl-6'-hydrazonomethyl]-rifamycin SV, reference compound], the solubility was 270 µg/mL (≈ 0.297 mM). On to `CO[C@H]1/C=C/O[C@@]2(C)Oc3c(C)c(O)c4c(O)c(c(C=NNC(=O)c5ccncc5)c(O)c4c3C2=O)NC(=O)/C(C)=C\C=C\[C@H](C)[C@H](O)[C@@H](C)[C@@H](O)[C@@H](C)[C@H](OC(C)=O)[C@@H]1C` [3-(isonicotinoylhydrazonomethyl)-rifamycin SV, reference compound], for which the concentration in solution (solubility) came to 920 µg/mL (≈ 1.09 mM). The same measure, in the same setting: then `CO[C@H]1/C=C/O[C@@]2(C)Oc3c(C)c(O)c4c(O)c(c(C=NNC(=O)Cc5ccccc5)c(O)c4c3C2=O)NC(=O)/C(C)=C\C=C\[C@H](C)[C@H](O)[C@@H](C)[C@@H](O)[C@@H](C)[C@H](OC(C)=O)[C@@H]1C` [3-(phenylacetylhydrazonomethyl)-rifamycin SV, reference compound], with 4800 µg/mL (≈ 5.59 mM). Still for that read-out and setting: then `CO[C@H]1/C=C/O[C@@]2(C)Oc3c(C)c(O)c4c(O)c(c(C=NO)c(O)c4c3C2=O)NC(=O)/C(C)=C\C=C\[C@H](C)[C@H](O)[C@@H](C)[C@@H](O)[C@@H](C)[C@H](OC(C)=O)[C@@H]1C` [3-formylrifamycin SV oxime, reference compound], with 5500 µg/mL (≈ 7.42 mM); and `CCON=Cc1c2c(O)c3c(O)c(C)c4c(c3c1O)C(=O)[C@@](C)(O/C=C/[C@H](OC)[C@@H](C)[C@@H](OC(C)=O)[C@H](C)[C@H](O)[C@H](C)[C@@H](O)[C@@H](C)/C=C/C=C(/C)C(=O)N2)O4` [3-(ethyloximinomethyl)rifamycin SV, reference compound], with 120 µg/mL (≈ 0.156 mM); and `CO[C@H]1/C=C/O[C@@]2(C)Oc3c(C)c(O)c4c(O)c(c(C=NNc5ccc(-c6ccc(C)c(C)c6)nn5)c(O)c4c3C2=O)NC(=O)/C(C)=C\C=C\[C@H](C)[C@H](O)[C@@H](C)[C@@H](O)[C@@H](C)[C@H](OC(C)=O)[C@@H]1C` [3-[3'-(3",4"-dimethylphenyl)-pyridazinyl-6'-hydrazonomethyl]-rifamycin SV, reference compound], with less than 100 µg/mL. On the same count and under the same terms, then `CO[C@H]1/C=C/O[C@@]2(C)Oc3c(C)c(O)c4c(O)c(c(C=NOCCBr)c(O)c4c3C2=O)NC(=O)/C(C)=C\C=C\[C@H](C)[C@H](O)[C@@H](C)[C@@H](O)[C@@H](C)[C@H](OC(C)=O)[C@@H]1C` [3-(2-bromethyloximinomethyl)-rifamycin SV, reference compound], with 2950 µg/mL (≈ 3.48 mM). On to `CO[C@H]1/C=C/O[C@@]2(C)Oc3c(C)c(O)c4c(O)c(c(C=NNC(=O)COc5ccccc5)c(O)c4c3C2=O)NC(=O)/C(C)=C\C=C\[C@H](C)[C@H](O)[C@@H](C)[C@@H](O)[C@@H](C)[C@H](OC(C)=O)[C@@H]1C` [3-phenoxyacetylhydrazonomethyl)-rifamysin SV, reference compound], for which the concentration in solution (solubility) came to 2750 µg/mL (≈ 3.15 mM).

Staying with this series, now noted: Solubility soluble form.
As for `CO[C@H]1/C=C/O[C@@]2(C)Oc3c(C)c(O)c4c(O)c(c(C=NNC(=O)Cc5ccccc5)c(O)c4c3C2=O)NC(=O)/C(C)=C\C=C\[C@H](C)[C@H](O)[C@@H](C)[C@@H](O)[C@@H](C)[C@H](OC(C)=O)[C@@H]1C` [Example 14, 3-(phenylacetylhydrazonomethyl)-rifamycin SV], the solubility turned out to be 71000 µg/mL (≈ 82.8 mM).

In turn, `CO[C@H]1/C=C/O[C@@]2(C)Oc3c(C)c(O)c4c(O)c(c(C=NOCCBr)c(O)c4c3C2=O)NC(=O)/C(C)=C\C=C\[C@H](C)[C@H](O)[C@@H](C)[C@@H](O)[C@@H](C)[C@H](OC(C)=O)[C@@H]1C` [Example 10, 3-(2-bromethyloximinomethyl)-rifamycin SV] yielded a solubility of more than 100000 µg/mL.

In the case of `CO[C@H]1/C=C/O[C@@]2(C)Oc3c(C)c(O)c4c(O)c(c(C=NNc5ccc(-c6ccc(C)cc6)nn5)c(O)c4c3C2=O)NC(=O)/C(C)=C\C=C\[C@H](C)[C@H](O)[C@@H](C)[C@@H](O)[C@@H](C)[C@H](OC(C)=O)[C@@H]1C` [Example 11, 3-[3'-(p-tolyl)-pyridazinyl-6'-hydrazonomethyl]-rifamycin SV], the concentration in solution (solubility) was 540 µg/mL (≈ 0.595 mM). Same read-out and setting: then `CO[C@H]1/C=C/O[C@@]2(C)Oc3c(C)c(O)c4c(O)c(c(C=NNC(=O)c5ccncc5)c(O)c4c3C2=O)NC(=O)/C(C)=C\C=C\[C@H](C)[C@H](O)[C@@H](C)[C@@H](O)[C@@H](C)[C@H](OC(C)=O)[C@@H]1C` [Example 13, 3-(isonicotinoylhydrazonomethyl)-rifamycin SV], with 168000 µg/mL (≈ 199 mM); and `CO[C@H]1/C=C/O[C@@]2(C)Oc3c(C)c(O)c4c(O)c(c(C=NNc5ccc(-c6ccc(C)c(C)c6)nn5)c(O)c4c3C2=O)NC(=O)/C(C)=C\C=C\[C@H](C)[C@H](O)[C@@H](C)[C@@H](O)[C@@H](C)[C@H](OC(C)=O)[C@@H]1C` [Example 12, 3-[3'-(3",4"-dimethylphenyl)-pyridazinyl-6'-hydrazonomethyl]-rifamycin SV], with 540 µg/mL (≈ 0.586 mM).

Consider `CO[C@H]1/C=C/O[C@@]2(C)Oc3c(C)c(O)c4c(O)c(c(C=NNC(=O)COc5ccccc5)c(O)c4c3C2=O)NC(=O)/C(C)=C\C=C\[C@H](C)[C@H](O)[C@@H](C)[C@@H](O)[C@@H](C)[C@H](OC(C)=O)[C@@H]1C` [Example 15], for which the solubility came out at 128000 µg/mL (≈ 146 mM). Still for that read-out and setting: then `CCON=Cc1c2c(O)c3c(O)c(C)c4c(c3c1O)C(=O)[C@@](C)(O/C=C/[C@H](OC)[C@@H](C)[C@@H](OC(C)=O)[C@H](C)[C@H](O)[C@H](C)[C@@H](O)[C@@H](C)/C=C/C=C(/C)C(=O)N2)O4` [Example 9, 3-(ethyloximinomethyl)rifamycin SV], with more than 100000 µg/mL.

The solubility is how much of the substance goes into solution per volume.
